PMC10606064, “2-Aminothiazole-Flavonoid Hybrid Derivatives Binding to Tau Protein and Responsible for Antitumor Activity in Glioblastoma” (International Journal of Molecular Sciences, 2023)

Legend:
[1] = tested on: U87 shCTRL and U87 shTau cells; assay: Acridine orange spectrofluorometry (late autophagy); format: cell-based, human; details: both cell types, 5 µM, 48 h
Procedure: Briefly, 2.10^5 cells in exponential growth were seeded in 6-well plates. After 24 h, they were treated with 5 µM of compounds for 48 h. Trypsinized cells were harvested, counted, and then centrifuged (1200 rpm, 5 min, at RT). The cells pellet was resuspended in 2 mL of acridine orange diluted in complete culture media to a final concentration of 1 µg/mL and incubated for 15 min in the dark. Cells were then collected by centrifugation (1200 rpm, 5 min, at RT). The cells pellet was resuspended in PBS to a suspension concentration of 2.10^5 cells/mL. The suspension was transferred to a quartz cuvette, and then fluorescence emission of acridine orange was measured with a FluoroMax-3 spectrofluorometer (Horiba Jobin Yvon, Palaisseau, France) (excitation at 490 nm).

[2] = tested on: LC3 proteins in U87 shCTRL and shTau cells; assay: LC3-II/LC3-I ratio by Western blot (autophagosomes); format: cell-based, human; details: both cell types, 5 µM, 48 h
Procedure: Cells were lysed with freshly made RIPA buffer derivative (4.3 mL of TBS 1×, 50 µL of SDS 10%, 10 µL of EDTA 0.5 M, 500 µL of Triton 10×, and 1% inhibitors of protease and phosphatase). After 30 min of lysis at 4 °C under agitation, lysates were centrifuged at 10,000× g for 10 min at 4 °C. Equivalent amounts of proteins from the supernatant fraction were subjected to Western blot analysis. Protein samples were loaded (40 μg/lane) and separated on 10 or 12% sodium dodecyl sulfate-polyacrylamide gels. The separated proteins were transferred onto nitrocellulose blotting membrane using the Bio-Rad transfer system. […] The band intensity was quantified using the ImageJ v1.50g software. […] The band intensity was quantified using the NIH ImageJ v1.50g software.
Figure 4 Compounds (2) and (9) affect autophagy function machinery and alter mitochondrial morphology. […] (A) Quantities of autophagy LC3 proteins were analyzed by Western blot of U87 shCTRL and U87 shTau cells: for each sample, the ratio of the amount of mature (LC3-II) to immature (LC3-I) isoform was calculated as relative fold of the reference value (with or without the compound); significant statistical differences were calculated using one-way ANOVA with a post hoc Tukey–Kramer HSD test with (*) p < 0.01 from three independent experiments; ns: non-significant. […]

[3] = tested on: U87 shTau cells; assay: Mitotic index by high-content imaging, U87 shTau; format: cell-based, human; details: 48 h, 5-times IC50 of compounds
Procedure: For scoring mitotic indexes, an automated high-content screening confocal microscopy approach was employed to identify cells undergoing mitosis from a large population of cells. For this, cells nuclei were stained with DAPI. Briefly, fibronectin-coated clear-glass-bottom black 96-well imaging plates were seeded with 100 µL of cell suspension (60,000 cell.mL^−1) in each well, with both U87 shCTRL and U87 ShTau cell lines. Cells were treated with 5-times IC50 of compounds for 48 h, then they were fixated inside the palates with 4% formaldehyde (in PBS pH 7.4) for 20 min at room temperature, permeabilized with PBS-Triton X-100 0.5% for 10 min at room temperature. DNA was then stained with DAPI (10 µg.mL^−1) for 5 min at room temperature and in the darkness. After being washed, cells were kept in PBS at 4 °C and imaged while in PBS. Automated confocal microscopy was carried out using an Opera Phenix (PerkinElmer) high-content screening microscope using a 20× Air/0.4 NA air objective. For each condition, 6 wells were prepared and a total of 61 fields were acquired for each well. Image analysis was performed using Harmony high-content analysis v4.8 software and PhenoLOGIC Machine Learning technology, which uses a learn-by-example approach. As a first step, nuclei were segmented and multiple parameters for these nuclei were calculated using Harmony v4.8 software building blocks. After training, PhenoLOGIC Machine Learning then selects the best parameters to detect nuclei undergoing the M phase of mitosis. From this, the mitotic index of each condition was calculated by dividing the number of cells undergoing mitosis over the total number of cells.

[4] = tested on: SK-N-SH neuroblastoma cells; assay: MTT cell viability assay, SK-N-SH; format: cell-based; details: Homo sapiens, 72 h, mean ± SEM, read-out: IC50 (metabolic activity)
Procedure: Cells harvested from sub-confluent monolayers were seeded at 15,000 cells per mL in a 96-well microtiter plate (Cambridge Technology, Labège, France) and cultured for 24 h under standard conditions. Standard medium was then replaced by fresh medium containing no drugs or compounds at different concentrations. The surviving cells were quantified after 72 h by the MTT assay, according to the manufacturer’s instructions. Briefly, 20 µL of 3-(4,5-diMethylThiazol-2-yl)-2,5diphenyl Tetrazolium bromide (MTT) solution at 5 mg.mL^−1 was added to cells for 3 h at 37 °C. The supernatant was discarded and replaced by 100 µL of dimethyl sulfoxide to dissolve formazan crystals. The absorbance was then read at 600 nm by spectrophotometry. For all concentrations of a given compound, cell viability was expressed as the percentage of the ratio between the mean absorbance of treated cells and the mean absorbance of untreated cells. Three independent experiments were performed, and the data were expressed as percentage of survival (using the untreated cells as 100%) and subjected to statistical analysis (n = 3). The IC50 was calculated using the Chou and Talalay method.

IC50 [4]	Structure (SMILES)	acridine orange fluorescence emission [1]	ratio of mature LC3-II to immature LC3-I [2]	mitotic index [3]
> 100 µM	Nc1nc2ccc3oc(C(=O)O)cc(=O)c3c2s1 [Compound 5]	shift to blue emission	no statistically significant changes in ratios	3 ± 0.39%
1.2 ± 0.3 µM	Nc1nc2ccc3oc(-c4cccc(Oc5ccccc5)c4)cc(=O)c3c2s1 [Compound 2, 2-amino-7-(3-phenoxyphenyl)-9H-chromeno [6,5-d]thiazol-9-one]	shift to blue emission	no statistically significant changes in ratios	no significant variation of mitotic indexes
